Earlier results as cited in patent publication US12276869B1, “WS12-releasing contact lens” (CooperVision International Limited, priority 2022, dated 2025).

Conditions: incorporated into silicone hydrogel contact lenses

## COc1ccc(NC(=O)C2CC(C)CCC2C(C)C)cc1 (stereo not shown) [WS12, N-(4-Methoxyphenyl)-5-methyl-2-(1-methylethyl)cyclohexanecarboxamide]
  stability to autoclave sterilization in silicone hydrogel contact lenses: withstand autoclave sterilization without degradation or leaching into the packaging solution
